These are literature values, as cited in paper PMC4629263 (Acta Pharmaceutica Sinica. B, 2015).

For data set [1] the following is noted: mice.
For data set [2] the following is noted: room temperature.

By LD50 is commonly meant the dose at which mortality reaches 50%. As usually defined, the pKa is the pH at which an ionisable group is half protonated. As for `COc1ccc2c(c1O)-c1c(OC)c(OC)cc3c1[C@H](C2)N(C)CC3` [ICD, Isocorydine], the pKa was 7.16. In addition, the LD50 in data set [1] is 32.2 mg/kg.

`COc1cc(N)c2c(c1O)-c1c(OC)c(OC)cc3c1[C@H](C2)N(C)CC3` [8-amino-isocorydine]: in data set [2], the “Stability in aqueous solution” value is on record as “not stable”.
